Experimental data published in patent US5216001A, “Indole derivatives” (H. Lunbeck A/S, priority 1990, dated 1993).
Where two headings read alike, the source gives them in different places.

Legend:
[1] = molecular target: T1, DA D-2 (Rattus norvegicus, UniProt P61169); assay: antagonism of pergolide-induced circling behaviour in rats with unilateral 6-OHDA lesions; assay type: in vivo; conditions: sc
T1 construct: Male Wistar rats (Mol:Wist) weighing about 200 g at the time of operation are used; from tissue; host or cells: living male Wistar (Mol:Wist) rats with unilateral 6-OHDA lesions (in vivo, endogenous receptor)
Experimental: ANTAGONISM OF PERGOLIDE-INDUCED CIRCLING BEHAVIOUR IN RATS WITH UNILATERAL 6-OHDA LESIONS
Dopamine (DA) D-2 agonists induce contralateral circling behaviour in rats with 6-OHDA lesions. Pergolide-induced circling is antagonized by DA D-2 antagonists.
Male Wistar rats (Mol:Wist) weighing about 200 g at the time of operation are used. Unilateral lesions are made in pentobarbital anaesthetized rats by injection of 6-OHDA. HCl 9.7 μg/μl (equivalent to 8 μg free base) per 4 min. into the rostral tip of the substantia nigra. The saline solution contains ascorbic acid 0.2 mg/ml, is bubbled with N2 and is kept ice-cold. The experiments are done when stable contralateral circling responses to pergolide (0.05 μmol/kg, s.c.) are obtained. The circling response is measured in rotometer bowls. Only rats showing more than 400 complete turns in 2 hrs control session are used. Dose-response curves are obtained by alternating test and control sessions on a weekly basis. The antagonists are injected s.c. 2 hrs before the agonist. The effect of individual doses of test drugs is calculated as per cent of the mean effect of control sessions one week before and one week after the test session for each rat. ED50 values are calculated by log-probit analysis. Four to eight rats are used at each dosage.

[2] = molecular target: T2, serotonin S2 (5-HT2) receptors (Rattus norvegicus, UniProt P14842); assay: inhibition of 3H-ketanserin binding to serotonin S2 (5-HT2) receptors in rat cortex in vitro; conditions: 3H-ketanserin 0.5 nM, rat cortex membranes, read-out: Binding IC50, 3H Ket.
T2 construct: cortical tissue is dissected and weighed; from tissue; host or cells: cerebral cortex membranes of male Wistar (Mol:Wist) rats

[3] = molecular target: T3, 5-HT2 (Rattus norvegicus, UniProt P14842); assay: quipazine inhibition (quipazine-induced head twitches in rats); assay type: in vivo; conditions: sc, 24 h, read-out: Quipazine inhibition ED50, 24h (sc)
T3 construct: Four rats, male Wistar (Mol:Wist) SPF rats weighing 170-240 g; from tissue; host or cells: living male Wistar (Mol:Wist) SPF rats (in vivo, endogenous receptor)

[4] = read-out: Pergolide rot. inhibition ED50, 2h (sc), 6-OHDA lesions, s.c., 2 h before pergolide

T2 sequence (P14842 whole entry): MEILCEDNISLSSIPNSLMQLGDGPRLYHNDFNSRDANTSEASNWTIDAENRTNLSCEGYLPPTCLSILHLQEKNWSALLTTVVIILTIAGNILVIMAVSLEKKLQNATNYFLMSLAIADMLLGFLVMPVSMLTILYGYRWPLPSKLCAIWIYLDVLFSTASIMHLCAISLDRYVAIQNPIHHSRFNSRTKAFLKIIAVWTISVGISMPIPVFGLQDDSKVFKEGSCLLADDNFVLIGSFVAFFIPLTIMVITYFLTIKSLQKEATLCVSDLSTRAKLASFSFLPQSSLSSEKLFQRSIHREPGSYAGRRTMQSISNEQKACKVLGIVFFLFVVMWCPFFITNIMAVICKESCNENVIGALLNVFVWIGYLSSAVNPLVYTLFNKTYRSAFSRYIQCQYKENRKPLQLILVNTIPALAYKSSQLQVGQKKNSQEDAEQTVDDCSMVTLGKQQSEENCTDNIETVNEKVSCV
T1 sequence (P61169 whole entry): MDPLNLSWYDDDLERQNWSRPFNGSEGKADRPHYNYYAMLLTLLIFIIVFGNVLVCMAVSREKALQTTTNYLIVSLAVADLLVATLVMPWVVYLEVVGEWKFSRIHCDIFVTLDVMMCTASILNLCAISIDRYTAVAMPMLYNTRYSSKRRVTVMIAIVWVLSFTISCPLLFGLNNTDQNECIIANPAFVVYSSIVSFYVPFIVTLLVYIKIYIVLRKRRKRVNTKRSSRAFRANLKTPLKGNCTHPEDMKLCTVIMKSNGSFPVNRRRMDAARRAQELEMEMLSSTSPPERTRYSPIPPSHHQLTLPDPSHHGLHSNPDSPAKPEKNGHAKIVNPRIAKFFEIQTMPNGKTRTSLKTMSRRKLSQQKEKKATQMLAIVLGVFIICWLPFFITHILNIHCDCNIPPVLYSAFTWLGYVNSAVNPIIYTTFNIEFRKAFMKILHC
T3 sequence (P14842 whole entry): as the sequence (P14842 whole entry) above

Row | Structure (SMILES) | ED50 ([1]; 2 h, read-out: Pergolide rot. inhibition ED50, 2h (sc)) [µmol/kg] | IC50 [2] [nM] | ED50 [1, 4] [µmol/kg] | ED50 [3] [µmol/kg]
1 | CC(C)N1CCN(CCN2CCC(c3cn(-c4ccc(F)cc4)c4cc(Cl)ccc34)CC2)C1=O [Compound 4a, 6-chloro-1-(4-fluorophenyl)-3-[1-[2-[3-(2-propyl)-2-imidazolidinon-1-yl]ethyl]-4-piperidyl]-1H-indole] | > 17 | 1.5 |  | 
2 | Cc1ccc2c(C3CCN(CCN4CCNC4=O)CC3)cn(-c3ccc(F)cc3)c2c1 [Compound 4g, 1-(4-fluorophenyl)-3-[1-[2-(2-imidazolidinon-1-yl)ethyl]-4-piperidyl]-6-methyl-1H-indole] |  | 0.8 | > 24 | 
3 | Cc1ccc2c(C3CCN(CCN4CCN(C(C)C)C4=O)CC3)cn(-c3ccc(F)cc3)c2c1 [Compound 5a, 1-(4-fluorophenyl)-6-methyl-3-[1-[2-[3-(2-propyl)-2-imidazolidinon-1-yl]ethyl]-4-piperidyl]-1H-indole] |  | 1.6 | > 18 | 
4 | OCCN1CCN(c2cn(-c3ccc(F)cc3)c3ccc(C(F)(F)F)cc23)CC1 [Lu 21-152, 1-(4-fluorophenyl)-3-[4-(2-hydroxyethyl)-1-piperazinyl]-5-trifluoromethyl-1H-indole, reference compound] |  | 1.4 | 0.02 | 0.15
